Test [1] relates to Gem-naïve and Gem-resistant PDAC cells. Put plainly: Colony formation assay. In kind it is cell-based, human. The method, then: (§1) S2-013 (FIG. 10A), MiaPaCa-2 (FIG. 10B) and MiaPaCa-GTR (FIG. 10C) show cells seeded at 1000 cells/well and treated with compounds (μM) for 14 days. Media was replaced every 72 hours. Cells were stained with 0.05% crystal violet. Conditioned media from MiaPaCa-2 cells after being treated with indicated compounds was separated on a zymogram gel to analyze the proteolytic activity of MMP9 after treatment (FIG. 10D).
FIG. 11: Inhibition of colony formation in S2-013 cells.
S2-013, MiaPaCa-2 and MiaPaCa-GTR were seeded at 1000 cells/well and treated with compounds (μM) for 14 days. Media was replaced every 72 h. Cells were stained with 0.05% crystal violet (FIG. 10A-C).

The test system of test [2] is Panc-1 cells. Put plainly: Wound-healing (scratch) migration assay. In kind it is cell-based, human. As to conditions: Panc-1, 5 μM, 12 hours. The method, then: FIG. 12: Panc-1 and S2-013 cells plated in 24-well plate in a monolayer and scratch wound made with a 200 μl pipette tip and treated with indicated compounds at 5 μM for 12 hours.
The present Example investigates whether ARDAs inhibit the migratory and invasive potential of PDAC cells. Decreased invasive potential of PDAC cells was shown through wound-healing and matrigel-coated Boyden chambers assays. Cells grown to a monolayer were used in migration assay after a scratch was made and incubated for 12 hours. […] In contrast, CGP and Gem were not effective. As expected these compounds also exerted strong anti-invasive efficacy against Capan-1 cells. The tested concentrations at time (12 h) of assay, all cells in each treatment group were ≥90% viable.

Test [3] deals with MiaPaCa-2. Put plainly: MTT cell viability / anti-proliferative assay. Format: cell-based, human. As to conditions: for anti-proliferative potency compared with gemcitabine: MiaPaCa-2 cells, MTT assay after a 7-day agent treatment. The method, then: FIG. 6: Inhibition of PDAC cell proliferation: MTT assay after a 7-day agent treatment.
(§2) FIG. 7: Effect of Galeterone, analogs and Gemcitabine on PDAC cells. MTT cell viability assays were conducted on Gem-naïve and Gem-resistant cells.
The present Example presents the in vitro anti-proliferative activities of compounds in three human PDAC cell lines, including, Capan-1, MiaPaCa-2 and S2-013 because of their relative resistant nature (30, 31). The cell lines used were authenticated by short tandem repeat.
(§3) The present Example investigates the potential efficacy of galeterone and three lead ARDAs in inhibiting cell viability of both gemcitabine naïve (Gem-naïve) and gemcitabine/erlotinib resistant human pancreatic cancer cells in vitro. […] Galeterone and its analogs show significant anti-proliferative active against both gemcitabine naïve and gemcitabine resistant PDAC cells.
A general note: Tetrazolium dyes change colour on reduction, which living cells bring about.

In test [4] the test system is S2-013. Put plainly: MTT cell viability assay. Format: cell-based. As to conditions: Homo sapiens, S2-013, single agent. The method, then:
as §2, §3

Test [5] relates to MiaPaCa-GR. Put plainly: MTT cell viability assay. In kind it is cell-based. As to conditions: Homo sapiens, MiaPaCa-GR (gemcitabine resistant), single agent. The method, then: as §2
(§4) Examples below were preformed using a panel of PDAC cells from primary tumors (MiaPaca-2, Panc-1, Capan-1 and HS766T), metastatic lesions (S2-013 and S2VP10) and drug-resistant MiaPaCa-GR (gemcitabine resistant-200 nM) and MiaPaCa-GTR (erlotinib-2 μM/gemcitabine-200 nM) cell lines. The activities of ARDAs and Gemcitabine (Gem) can be evaluated using complementary assays and molecular determinants can also be identified in a panel of human PDAC cells. The mechanism(s) of action of ARDAs alone and in combination with Gem with the primary goal to identify the key mediators for their activities in PDAC cells are disclosed here. […] Initially four cell line (2 Gem-naïve and the two Gem-resistant lines) will be used. Key findings derived from these cell lines can be validated in additional cell lines if necessary. How these agents modulate Mnk1/2-peIF4E and NFκ-B can also be focused on.
(§5) The present Example investigates the potential efficacy of galeterone and three lead ARDAs in inhibiting cell viability of both gemcitabine naïve (Gem-naïve) and gemcitabine/erlotinib resistant human pancreatic cancer cells in vitro. […]

Test [6] deals with MiaPaCa-GTR. Put plainly: MTT cell viability assay. As to conditions: Homo sapiens, MiaPaCa-GTR (gemcitabine/erlotinib resistant), single agent. In kind it is cell-based. The method, then:
as §2, §4, §5

In test [7] the test system is MMP9. Put plainly: Zymography of conditioned media from MiaPaCa-2 cells. Format: cell-based, human. As to conditions: conditioned media of MiaPaCa-2 cells treated 3 days. The method, then:
as §1
Zymography assays were performed by seeding cells in 10 cm plates in phenol-red free media with no fetal bovine serum (FBS) and treated for 3 days. Media from cells were concentrated using amicon ultra filtration columns and normalized protein run on a 10% gelatin gels. Conditioned media from MiaPaCa-2 cells after being treated with indicated compounds was separated on a zymogram gel to analyze the proteolytic activity of MMP9 after treatment (FIG. 10D). […] The ARDAs caused significant depletion of matrix metalloproteinases (MMPs).

For test [8], the system named is S2-013. Put plainly: Apoptosis, acridine orange ethidium bromide staining. Format: cell-based, human. As to conditions: S2-013 metastatic cell line, 2.5 μM, 24 hours. The method, then:
(§6) FIG. 18: Apoptotic induction of Gal and Analogs and Gem-resistant PDAC cells. (FIG. 18A) Galeterone and analogs induce apoptosis in S2-013 cells analyzed by acridine orange ethidium bromide staining. Cells were treated with 2.5 μM. (FIG. 18B) Galeterone and analogs were compared to gemcitabine in inducing apoptosis analyzed by flow cytometry in MiaPaCa-GR cells.
(§7) Cells treated with indicated doses for 24 hours were analyzed by acridine orange ethidium bromide assay and also by FACS analysis using Annexin V and PI staining following manufacturer's protocol. […] Galeterone and analogs induce apoptosis in S2-013 cells analyzed by acridine orange ethidium bromide staining ([…]). Galeterone and analogs were compared to gemcitabine in inducing both early and late apoptosis analyzed by flow cytometry (FIG. 18B).

In test [9] the test system is MiaPaCa-GR. Put plainly: Apoptosis, flow cytometry Annexin V and PI staining. Format: cell-based, human. As to conditions: MiaPaCa-GR cells, 24 hours. The method, then:
as §6, §7
(In general: A flow cytometer gives signals particle by particle.)

For test [10] the following is noted: compared to VN/124-1, reference (1); cited from earlier work.
Test [11] deals with T1, androgen receptor (Homo sapiens, UniProt P10275).
T1 sequence (P10275 1-920): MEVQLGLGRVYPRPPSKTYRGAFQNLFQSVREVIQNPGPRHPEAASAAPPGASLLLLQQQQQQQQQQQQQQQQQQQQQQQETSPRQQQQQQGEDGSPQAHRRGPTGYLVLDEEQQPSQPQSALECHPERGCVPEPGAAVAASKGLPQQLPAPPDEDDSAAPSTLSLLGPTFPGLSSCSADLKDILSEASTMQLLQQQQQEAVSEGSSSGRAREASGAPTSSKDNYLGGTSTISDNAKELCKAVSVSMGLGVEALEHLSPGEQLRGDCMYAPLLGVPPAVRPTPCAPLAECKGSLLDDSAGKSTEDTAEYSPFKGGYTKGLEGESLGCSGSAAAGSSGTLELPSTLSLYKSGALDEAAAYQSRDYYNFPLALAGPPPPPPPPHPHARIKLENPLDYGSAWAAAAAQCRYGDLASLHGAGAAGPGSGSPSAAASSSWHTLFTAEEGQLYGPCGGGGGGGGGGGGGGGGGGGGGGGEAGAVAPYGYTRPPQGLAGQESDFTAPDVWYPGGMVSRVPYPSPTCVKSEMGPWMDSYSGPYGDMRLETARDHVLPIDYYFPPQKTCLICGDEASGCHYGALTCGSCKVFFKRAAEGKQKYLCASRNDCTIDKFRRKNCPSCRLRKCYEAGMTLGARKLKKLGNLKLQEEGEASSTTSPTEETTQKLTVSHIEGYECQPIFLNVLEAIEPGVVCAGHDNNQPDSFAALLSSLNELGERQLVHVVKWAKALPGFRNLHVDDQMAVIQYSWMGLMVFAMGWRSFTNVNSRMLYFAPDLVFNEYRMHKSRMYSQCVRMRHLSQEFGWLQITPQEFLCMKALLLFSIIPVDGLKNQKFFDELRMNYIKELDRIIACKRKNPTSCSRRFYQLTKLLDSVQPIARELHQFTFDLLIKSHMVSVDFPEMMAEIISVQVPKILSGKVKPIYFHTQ
As to conditions: compared to VN/124-1, reference (1); cited from earlier work.

Test [12] deals with patients with advanced-stage pancreatic cancer. As to conditions: in combination with gemcitabine, Moore et al. 2007; cited from earlier work.
[13] abbreviates: 1000 cells/well, treated 14 days, alone or in combination with gemcitabine.

What is called GI50 is the concentration giving 50% growth inhibition.

In the case of `Nc1ncnc2n[nH]c(Nc3ccc(F)cc3)c12` [CGP, reference compound], the colony formation entry in [1] (CGP at 2.5 μM) is “did not significantly affect colony formation”. For the same molecule, in test [2], the cell migration result is “not effective”.
Take `C[C@]12CC[C@H](O)CC1=CC[C@@H]1[C@@H]2CC[C@]2(C)C(n3cnc4ccccc43)=CC[C@@H]12` [Galeterone, galeterone]: the GI50 in test [3] (Homo sapiens, MIA PaCa-2, MiaPaCa-2, single agent, MTT) was 1.23 µM; in test [4] it was 0.49 µM; in test [5], 7.08 µM; in test [6], 2.19 µM. Further, the “anti-proliferative potency compared with gemcitabine” value in test [3] is “almost as potent as gemcitabine”. Moreover, in [1] (setting [13]), the colony formation result is “significantly inhibited”. Also, the MMP9 secretion entry in test [7] (alone) and in [7] (in combination with gemcitabine) was “decreases MMP9 secretion” throughout. Moreover, the cell migration entry in test [2] is “significant inhibition”. Moreover, the induction of apoptosis entry in test [8] and in test [9] was “significantly induce apoptosis” each time.
On to `Nc1ccn([C@@H]2O[C@H](CO)[C@@H](O)C2(F)F)c(=O)n1` [Gemcitabine, reference compound], for which the colony formation entry in test [1] (setting [13]) is “inhibit colony formation”. The cell migration entry in test [2] was “not effective”.
Consider `C[C@]12CC[C@H](OCc3ccncc3)CC1=CCC1C2CC[C@]2(C)C(n3cnc4ccccc43)=CCC12` (stereo partly shown) [VNPP414], for which the “anti-proliferative potency compared with gemcitabine” value in test [3] was “almost as potent as gemcitabine”. Also, the cell migration entry in test [2] is “significant inhibition”.
With `C[C@]12CC[C@H](n3ccnc3)CC1=CC[C@@H]1[C@@H]2CC[C@]2(C)C(n3cnc4ccccc43)=CC[C@@H]12` [VNPP433-3β], in test [3], the “anti-proliferative potency compared with gemcitabine” value was “almost as potent as gemcitabine”.
In the case of `C[C@]12CC[C@H](OC(=O)n3ccnc3)CC1=CCC1C2CC[C@]2(C)C(n3cnc4ccccc43)=CCC12` (stereo partly shown) [VNPT-55], the “anti-proliferative potency compared with gemcitabine” value in test [3] is recorded as “almost as potent as gemcitabine”. Further, in [10], the “anti-proliferative (AP) potency relative to VN/124-1” value is recorded as 4 fold. In addition, the “ARD potency relative to VN/124-1” value in test [11] is 8 fold.
On to `C#Cc1cccc(Nc2ncnc3cc(OCCOC)c(OCCOC)cc23)c1` [erlotinib], for which the “median overall survival benefit” value in test [12] is listed as “less than four weeks”.

The values above are taken from patent US11707468B2, “Methods of treating pancreatic cancer” (UNIVERSITY OF MARYLAND, BALTIMORE, priority 2014, dated 2023).
